From US20180065917A1, “IMMUNE CHECKPOINT INHIBITORS, COMPOSITIONS AND METHODS THEREOF” (Polaris Pharmaceuticals, Inc., priority 2016, published 2018)
Where a name gives a salt, the structure may show the parent alone.

How the values were obtained:
[1] = molecular target: T1, PD-L1/PD-1 complex formation (Homo sapiens, UniProt Q9NZQ7); experiment: PD-L1/PD-1 Interaction Assay (ELISA platform); type: binding; settings: human PD-1-Fc coated plates, PD-L1-Fc-biotin 0.1 μg/ml, compounds pre-incubated 2 hours
T1 construct: purchased BPS Bioscience
T1 sequence (Q9NZQ7 19-239 limits assumed, one chain of several): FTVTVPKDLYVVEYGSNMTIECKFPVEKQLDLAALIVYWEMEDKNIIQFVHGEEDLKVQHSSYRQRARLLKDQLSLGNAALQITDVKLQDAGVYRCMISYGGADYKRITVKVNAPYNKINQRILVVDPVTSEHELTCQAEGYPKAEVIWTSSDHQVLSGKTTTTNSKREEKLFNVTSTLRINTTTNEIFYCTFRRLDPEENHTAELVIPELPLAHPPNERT
Method: The ability of compounds to block PD-L1/PD-1 complex formation was evaluated using biochemical interaction assay based on the ELISA platform.
EIA/RIA high binding 96-well plates (Costar) were coated with human PD-1-Fc protein diluted in PBS to 0.5 μg/ml overnight at 4° C. The PD-1-Fc coated plates were washed in PBST and blocked in blocking buffer (2% BSA in PBST). Serially diluted compounds were pre-incubated with PD-L1-Fc-biotin (0.1 μg/ml final) for 2 hours on a shaker at room temperature. The PD-1-Fc coated plates were washed with PBST and solutions containing PD-L1 and compounds were added to the plates. The PD-1-Fc coated plates were incubated with PD-L1 and compound solution for 2 hours on a shaker at room temperature. After the incubation unbound PD-L1 was washed away with PBST and plates were incubated with the blocking buffer for 10 minutes. The bound PD-L1-Fc-biotin was detected with streptavidin-HRP and TMB substrate. The plates were read at OD450 nm in a plate reader (i3 from Molecular Devices) and percentages of inhibition of PD-L1/PD-1 complex formation were calculated.
PD-1-Fc protein was made at Polaris and PD-L1-Fc was purchased from BPS Bioscience.

melting point [°C]	IC50 [1] [nM]	SMILES
196 to 200	–	Cc1c(COc2ccc(CN3CCCC[C@H]3C(=O)O)cc2C#N)cccc1-c1cccc(COc2ccc(CN3CCCC[C@H]3C(=O)O)cc2C#N)c1C (as salt: trifluoroacetic acid salt) [Example 34, (2S,2′S)-1,1′-(((((2,2′-dimethyl-[1,1′-biphenyl]-3,3′-diyl)bis(methylene))bis(oxy))bis(3-cyano-4,1-phenylene))bis(methylene))bis(piperidine-2-carboxylic acid) di-trifluoroacetic acid salt]
222 to 226	0.1 to 10	Cc1c(COc2ccc(CN3CCCC[C@H]3C(=O)O)cc2Br)cccc1-c1cccc(COc2ccc(CN3CCCC[C@H]3C(=O)O)cc2Br)c1C [Example 1, (2S,2′S)-1,1′-(((((2,2′-dimethyl-[1,1′-biphenyl]-3,3′-diyl)bis(methylene))bis(oxy))bis(3-bromo-4,1-phenylene))bis(methylene))bis(piperidine-2-carboxylic acid)]
95 to 99	11 to 100	CC(=O)NCCNCc1ccc(OCc2cccc(-c3cccc(COc4ccc(CNCCNC(C)=O)cc4Br)c3C)c2C)c(Br)c1 [Example 6, N,N′-(((((((2,2′-Dimethyl-[1,1′-biphenyl]-3,3′-diyl)bis(methylene))bis(oxy))bis(3-bromo-4,1-phenylene))bis(methylene))bis(azanediyl))bis(ethane-2,1-diyl))diacetamide]
260 to 264	0.1 to 10	Cc1c(COc2ccc(CN3C[C@@H](O)C[C@H]3C(=O)O)cc2Br)cccc1-c1cccc(COc2ccc(CN3C[C@@H](O)C[C@H]3C(=O)O)cc2Br)c1C [Example 7, (2S,2'S,4S,4′S)-1,1′-(((((2,2′-Dimethyl-[1,1′-biphenyl]-3,3′-diyl)bis(methylene))bis(oxy))bis(3-bromo-4,1-phenylene))bis(methylene))bis(4-hydroxypyrrolidine-2-carboxylic acid)]
306 to 310	1010 to 30000	O=C(O)[C@@H]1CCCCN1Cc1ccc(OCc2cccc(-c3cccc(COc4ccc(CN5CCCC[C@H]5C(=O)O)cc4Br)c3)c2)c(Br)c1 [Example 8, (2S,2′S)-1,1′-(((([1,1′-Biphenyl]-3,3′-diylbis(methylene))bis(oxy))bis(3-bromo-4,1-phenylene))bis(methylene))bis(piperidine-2-carboxylic acid)]
184 to 188	0.1 to 10	O=C(O)[C@@H]1CCCCN1Cc1ccc(OCc2cccc(-c3cccc(COc4ccc(CN5CCCC[C@H]5C(=O)O)cc4Br)c3Cl)c2Cl)c(Br)c1 [Example 9, (2S,2′S)-1,1′-(((((2,2′-Dichloro-[1,1′-biphenyl]-3,3′-diyl)bis(methylene))bis(oxy))bis(3-bromo-4,1-phenylene))bis(methylene))bis(piperidine-2-carboxylic acid)]
204 to 208	110 to 1000	O=C(O)[C@@H]1CCCCN1Cc1ccc(OCc2cccc(-c3cccc(COc4ccc(CN5CCCC[C@H]5C(=O)O)cc4Br)c3F)c2F)c(Br)c1 [Example 10, (2S,2′S)-1,1′-(((((2,2′-Difluoro-[1,1′-biphenyl]-3,3′-diyl)bis(methylene))bis(oxy))bis(3-bromo-4,1-phenylene))bis(methylene))bis(piperidine-2-carboxylic acid)]
191 to 195	11 to 100	Cc1cc(CN2CCCC[C@H]2C(=O)O)ccc1OCc1cccc(-c2cccc(COc3ccc(CN4CCCC[C@H]4C(=O)O)cc3C)c2C)c1C [Example 11, (2S,2′S)-1,1′-(((((2,2′-Dimethyl-[1,1′-biphenyl]-3,3′-diyl)bis(methylene))bis(oxy))bis(3-methyl-4,1-phenylene))bis(methylene))bis(piperidine-2-carboxylic acid)]
184 to 188	11 to 100	Cc1c(COc2ccc(CN3CCCC[C@H]3C(=O)O)cc2Cl)cccc1-c1cccc(COc2ccc(CN3CCCC[C@H]3C(=O)O)cc2Cl)c1C [Example 12, (2S,2′S)-1,1′-(((((2,2′-Dimethyl-[1,1′-biphenyl]-3,3′-diyl)bis(methylene))bis(oxy))bis(3-chloro-4,1-phenylene))bis(methylene))bis(piperidine-2-carboxylic acid)]
287 to 291	0.1 to 10	Cc1c(COc2ccc(CN3CCCC[C@H]3C(=O)O)cc2C(F)(F)F)cccc1-c1cccc(COc2ccc(CN3CCCC[C@H]3C(=O)O)cc2C(F)(F)F)c1C [Example 13, (2S,2′S)-1,1′-(((((2,2′-Dimethyl-[1,1′-biphenyl]-3,3′-diyl)bis(methylene))bis(oxy))bis(3-(trifluoromethyl)-4,1-phenylene))bis(methylene))bis(piperidine-2-carboxylic acid)]
205 to 209	110 to 1000	Cc1c(COc2ccc(CN3CCCC[C@H]3C(=O)O)cc2F)cccc1-c1cccc(COc2ccc(CN3CCCC[C@H]3C(=O)O)cc2F)c1C [Example 19, (2S,2′S)-1,1′-(((((2,2′-Dimethyl-[1,1′-biphenyl]-3,3′-diyl)bis(methylene))bis(oxy))bis(3-fluoro-4,1-phenylene))bis(methylene))bis(piperidine-2-carboxylic acid)]
192 to 196	1010 to 30000	COc1cc(CN2CCCC[C@H]2C(=O)O)ccc1OCc1cccc(-c2cccc(COc3ccc(CN4CCCC[C@H]4C(=O)O)cc3OC)c2C)c1C [Example 20, (2S,2′S)-1,1′-(((((2,2′-Dimethyl-[1,1′-biphenyl]-3,3′-diyl)bis(methylene))bis(oxy))bis(3-methoxy-4,1-phenylene))bis(methylene))bis(piperidine-2-carboxylic acid)]
143 to 147	1010 to 30000	Cc1c(COc2ccc(CN3CCCC[C@H]3C(=O)O)cc2O)cccc1-c1cccc(COc2ccc(CN3CCCC[C@H]3C(=O)O)cc2O)c1C [Example 21, (2S,2′S)-1,1′-(((((2,2′-Dimethyl-[1,1′-biphenyl]-3,3′-diyl)bis(methylene))bis(oxy))bis(3-hydroxy-4,1-phenylene))bis(methylene))bis(piperidine-2-carboxylic acid)]
86 to 90	11 to 100	COc1cc(OCc2cccc(-c3cccc(COc4cc(OC)c(CNCCO)c(OC)c4)c3C)c2C)cc(OC)c1CNCCO [Example 22, 2,2′-((((((2,2′-Dimethyl-[1,1′-biphenyl]-3,3′-diyl)bis(methylene))bis(oxy))bis(2,6-dimethoxy-4,1-phenylene))bis(methylene))bis(azanediyl))bis(ethan-1-ol)]
